Experimental data: patent US20230365537A1, “POLO LIKE KINASE 4 INHIBITORS” (ORIC Pharmaceuticals, Inc., priority 2021, published 2023)

Assays:
[1] = system: CHP-134 cells; test: CHP134 CellTiter-Glo (CTG) Assay; assay type: cell-based; details: Homo sapiens, 5 days, viable cells by CellTiter-Glo
Description: Cells were seeded (200 cells/well) in 384-well plates for 16 hours. On day two, nine serial 1:3 compound dilutions were made in DMSO in a 96-well plate. The compounds were then further diluted into growth media using a BRAVO robot (Agilent, Santa Clara, CA). The diluted compounds were then added to quadruplicate wells in the 384-well cell plate and incubated at 37° C. and 5% CO2. After 5 days, relative numbers of viable cells were measured by luminescence using CellTiter-Glo® (Promega) according to the manufacturer’s instructions and read on a SPARK Multimode Microplate Reader (Tecan, Mannedorf Switzerland). The IC50 calculations for the values reported in Table 2 were carried out using Prism 6.0 software (GraphPad, San Diego).

[2] = molecular target: human recombinant PLK4 (Homo sapiens (Human), UniProt O00444); test: PLK4 Biochemical Assay (ADP-Glo); details: 0.5 nM PLK4, 8.0 µM ATP, 4.7 µM MBP, 6 hours at RT
Summary of the method: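 Recombinant human PLK4 (added at 1.0 nM) was preincubated 15 min at RT with compound in 50 mM HEPES pH 7.5, 10 mM MgCl2, 1 mM EGTA, 1 mM DTT, 0.01% Brij-35, 0.01% BSA. ADP formed was detected by ADP-Glo luminescence (40 min ATP depletion, 30 min detection). IC50 came from a four-parameter fit.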

[3] = molecular target: human recombinant Aurora B (Homo sapiens (Human), UniProt Q96GD4); test: Aurora B Kinase Biochemical Assay (ADP-Glo); details: ratio of Aurora B IC50 to PLK4 IC50 (selectivity)
Summary of the method: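 Recombinant human Aurora B (20 nM in pH 7.5 HEPES buffer with MgCl2, EGTA, DTT, Brij-35, BSA) preincubated with compound 15 min at RT. ADP formed quantified by ADP-Glo luminescence after ATP depletion (40 min) and detection (30 min). IC50 from four-parameter non-linear regression.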

[4] = molecular target: human recombinant Aurora A (Homo sapiens (Human), UniProt O14965); test: Aurora A Kinase Biochemical Assay (ADP-Glo); details: ratio of Aurora A IC50 to PLK4 IC50 (selectivity)
Sequence of human recombinant Aurora A (O14965 whole entry): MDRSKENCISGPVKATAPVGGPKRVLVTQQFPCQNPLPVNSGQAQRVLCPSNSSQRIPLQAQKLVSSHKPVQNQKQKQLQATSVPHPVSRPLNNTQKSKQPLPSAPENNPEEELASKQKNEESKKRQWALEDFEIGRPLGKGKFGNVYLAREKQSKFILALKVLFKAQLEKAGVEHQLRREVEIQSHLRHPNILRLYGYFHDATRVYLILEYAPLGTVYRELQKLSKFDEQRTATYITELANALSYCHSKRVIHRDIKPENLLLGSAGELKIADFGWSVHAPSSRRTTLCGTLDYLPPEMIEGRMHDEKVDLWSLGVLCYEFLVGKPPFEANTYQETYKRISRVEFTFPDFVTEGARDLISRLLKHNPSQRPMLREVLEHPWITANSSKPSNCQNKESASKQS

Sequence of human recombinant PLK4 (O00444 whole entry): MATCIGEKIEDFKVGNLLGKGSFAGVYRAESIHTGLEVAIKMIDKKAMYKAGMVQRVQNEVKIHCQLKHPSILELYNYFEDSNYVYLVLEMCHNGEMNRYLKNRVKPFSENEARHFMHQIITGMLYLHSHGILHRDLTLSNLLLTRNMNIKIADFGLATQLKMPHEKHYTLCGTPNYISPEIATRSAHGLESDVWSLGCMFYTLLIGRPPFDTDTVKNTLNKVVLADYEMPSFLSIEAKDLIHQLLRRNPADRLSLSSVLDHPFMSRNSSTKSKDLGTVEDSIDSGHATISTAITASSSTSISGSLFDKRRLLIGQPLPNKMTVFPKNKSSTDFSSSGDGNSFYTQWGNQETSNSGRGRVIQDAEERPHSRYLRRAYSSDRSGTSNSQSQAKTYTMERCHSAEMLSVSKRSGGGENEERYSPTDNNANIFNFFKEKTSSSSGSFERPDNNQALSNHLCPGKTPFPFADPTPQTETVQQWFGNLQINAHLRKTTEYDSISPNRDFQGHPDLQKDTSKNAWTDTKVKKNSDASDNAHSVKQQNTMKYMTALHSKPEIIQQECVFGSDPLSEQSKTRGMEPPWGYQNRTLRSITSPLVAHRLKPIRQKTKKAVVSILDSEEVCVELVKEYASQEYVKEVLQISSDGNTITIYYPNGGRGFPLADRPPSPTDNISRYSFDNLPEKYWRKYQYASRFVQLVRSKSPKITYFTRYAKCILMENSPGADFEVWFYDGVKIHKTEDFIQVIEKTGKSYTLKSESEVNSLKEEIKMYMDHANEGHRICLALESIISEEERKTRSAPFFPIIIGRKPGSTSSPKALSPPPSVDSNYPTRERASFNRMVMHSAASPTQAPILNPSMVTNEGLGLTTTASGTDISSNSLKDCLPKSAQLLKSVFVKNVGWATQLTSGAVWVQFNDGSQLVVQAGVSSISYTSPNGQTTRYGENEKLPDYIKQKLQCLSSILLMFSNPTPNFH
Sequence of human recombinant Aurora B (Q96GD4 whole entry): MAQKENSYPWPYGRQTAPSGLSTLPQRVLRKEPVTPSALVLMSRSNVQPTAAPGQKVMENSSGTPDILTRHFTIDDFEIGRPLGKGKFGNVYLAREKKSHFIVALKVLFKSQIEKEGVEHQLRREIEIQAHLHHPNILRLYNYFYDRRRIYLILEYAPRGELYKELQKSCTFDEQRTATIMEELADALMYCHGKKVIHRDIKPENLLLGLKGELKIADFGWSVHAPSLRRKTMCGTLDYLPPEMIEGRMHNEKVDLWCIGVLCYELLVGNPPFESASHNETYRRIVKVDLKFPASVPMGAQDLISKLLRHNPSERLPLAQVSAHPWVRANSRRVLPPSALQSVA

Row | Structure (SMILES) | IC50 [2] | [Aurora B IC50 (nM)]/[PLK4 IC50 (nM)] [3] | [Aurora A IC50 (nM)]/[PLK4 IC50 (nM)] [4] | IC50 ([1]; CHP-134, 120 h) | IC50 ([1]; 120 h)
1 | COc1ccc2c(c1)[C@]1(C[C@H]1c1ccc3c(Nc4ncnc(N5CCS(=O)(=O)CC5)c4OC)n[nH]c3c1)C(=O)N2 [Example 54, (1R,2S)-2-(3-((6-(1,1-dioxidothiomorpholino)-5-methoxypyrimidin-4-yl)amino)-1H-indazol-6-yl)-5′-methoxyspiro[cydopropane-1,3′-indolin]-2′-one] | 33.2 nM | 117.2684 | 1504.212 | 10000 nM | 
2 | COc1ccc2c(c1)[C@]1(C[C@H]1c1ccc3c(Nc4nc(CCO)cnc4OC)n[nH]c3c1)C(=O)N2 [Example 56, (1R,2S)-2-(3-{[6-(2-hydroxyethyl)-3-methoxypyrazin-2-yl]amino}-1H-indazol-6-yl)-5′-methoxyspiro[cyclopropane-1,3′-indol]-2′(1′H)-one] | 3.84 nM | 423.7686 | 1047.694 | 2680 nM | 
3 | COc1ccc2c(c1)[C@]1(C[C@H]1c1ccc3c(Nc4nc(C)nc(N5CCS(=O)(=O)CC5)c4OC)n[nH]c3c1)C(=O)N2 [Example 57, 4-[5-methoxy-6-({6-[(1R,2S)-5′-methoxy-2′-oxo-1′,2′-dihydrospiro[cyclopropane-1,3′-indol]-2-yl]-1H-indazol-3-yl}amino)-2-methylpyrimidin-4-yl]-1λ6-thiomorpholine-1,1-dione] | 5.08 nM | 831.2992 | 3527.559 | 3960 nM | 
4 | COc1ccc2c(c1)[C@]1(C[C@H]1c1ccc3c(Nc4nc(C#N)nc(N5CCOCC5)c4OC)n[nH]c3c1)C(=O)N2 [Example 61, 5-methoxy-4-({6-[(1R,2S)-5′-methoxy-2′-oxo-1’,2′-dihydrospiro[cyclopropane-1,3′-indol]-2-yl]-1H-indazol-3-yl}amino)-6-(morpholin-4-yl)pyrimidme-2-carbonitrile] | 9.74 nM | 955.0539 | 588.8148 |  | 2380 nM
5 | COc1ccc2c(c1)[C@]1(C[C@H]1c1ccc3c(Nc4nc(C#N)nc(N5CCS(=O)(=O)CC5)c4OC)n[nH]c3c1)C(=O)N2 [Example 62, 4-(l,l-dioxidothiomorpholino)-5-methoxy-6-((6-((lR,2S)-5′-methoxy-2′-oxospiro[cyclopropane-1,3′-indolin]-2-yl)-1H-indazol-3-yl)amino)pyrimidine-2-carbonitrile] | 16.9 nM | 946.7771 | 540.9225 | 10000 nM | 
6 | COc1ccc2c(c1)[C@]1(C[C@H]1c1ccc3c(Nc4nc(CCO)nc(N5CCOCC5)c4OC)n[nH]c3c1)C(=O)N2 [Example 68, (1R,2S)-2-(3-{[2-(2-hydroxyethyl)-5-methoxy-6-(morpholin-4-yl)pyrimidin-4-yl]amino}-1H-indazol-6-yl)-5′-methoxyspiro[cyclopropane-1,3′-indol]-2′(1′H)-one] | 7.38 nM | 1347.967 | 4761.518 | 2480 nM | 
7 | COc1ccc2c(c1)[C@]1(C[C@H]1c1ccc3c(Nc4nc(C5CC5)nc(N5CCS(=O)(=O)CC5)c4OC)n[nH]c3c1)C(=O)N2 [Example 69, 4-[2-cyclopropyl-5-methoxy-6-({6-[(1R,2S)-5′-methoxy-2′-oxo-1’,2′-dihydrospiro[cyclopropane-1,3′-indol]-2-yl]-1H-indazol-3-yl}amino)pyrimidin-4-yl]-1λ6-thiomorpholine-1,1-dione] | 2.98 nM | 480.7112 | 1785.978 | 686 nM | 
8 | COc1ccc2c(c1)[C@]1(C[C@H]1c1ccc3c(Nc4nc(C)cnc4OC)n[nH]c3c1)C(=O)N2 [Example 71, (1R,2S)-5′-methoxy-2-{3-[(3-methoxy-6-methylpyrazin-2-yl)amino]-1H-indazol-6-yl}spiro[cyclopropane-1,3′-indol]-2′(1′H)-one] | 3.06 nM | 38.67 | 420.9667 | 989 nM | 
9 | COc1ccc2c(c1)[C@]1(C[C@H]1c1ccc3c(Nc4nc(C)nc(N5CC(O)C5)c4OC)n[nH]c3c1)C(=O)N2 [Example 73, (1R,2S)-2-(3-{[6-(3-hydroxyazetidin-l-yl)-5-methoxy-2-methylpyrimidin-4-yl]amino}-1H-indazol-6-yl)-5′-methoxyspiro[cyclopropane-1,3′-indol]-2′(1′H)-one] | 7.04 nM | 346.7708 | 3290.277 | 10000 nM | 

Compounds with a lower IC50 [2], results first:

Row | IC50 [2] | [Aurora B IC50 (nM)]/[PLK4 IC50 (nM)] [3] | [Aurora A IC50 (nM)]/[PLK4 IC50 (nM)] [4] | Structure (SMILES) | IC50 ([1]; CHP-134, 120 h) | IC50 ([1]; 120 h)
10 | 2.32 nM | 140.6736 | 1393.782 | COc1ccc2c(c1)[C@]1(C[C@H]1c1ccc3c(Nc4nc(C)nc(N5CCS(=O)(=O)CC5)c4Cl)n[nH]c3c1)C(=O)N2 [Example 58, 4-[5-chloro-6-({6-[(1R,2S)-5′-methoxy-2′-oxo-1,2′-dihydrospiro[cyclopropane-1,3′-indol]-2-yl]-1H-indazol-3-yl}amino)-2-methylpyrimidin-4-yl]-1λ6-thiomorpholine-1,1-dione] | 157 nM | 
11 | 1.34 nM | 499.9255 | 4976.155 | COc1ccc2c(c1)[C@]1(C[C@H]1c1ccc3c(Nc4nc(C)nc(N5C[C@@H](C)O[C@@H](C)C5)c4OC)n[nH]c3c1)C(=O)N2 [Example 67, (1R,2S)-2-[3-({6-[(2R,6S)-2,6-dimethylmorpholin-4-yl]-5-methoxy-2-methylpyrimidin-4-yl}amino)-1H-indazol-6-yl]-5′-methoxyspiro[cyclopropane-1,3′-indol]-2′(1′H)-one] | 4390 nM | 
12 | 1.1 nM | 512.7157 | 1376.93 | COc1ccc2c(c1)[C@]1(C[C@H]1c1ccc3c(Nc4nc(C5CC5)nc(N5CCS(=O)(=O)CC5)c4Cl)n[nH]c3c1)C(=O)N2 [Example 70, 4-[5-chloro-2-cyclopropyl-6-({6-[(1R,2S)-5′-methoxy-2′-oxo-1′,2′-dihydrospiro[cyclopropan-1,3′-indol]-2-yl]-1H-indazol-3-yl}amino)pyrimidin-4-y1]-1λ6-thiomorpholine-1,1-dione] | 80.3 nM | 
13 | 0.997 nM | 405.2156 | 2006.018 | COc1ccc2c(c1)[C@]1(C[C@H]1c1ccc3c(Nc4nc(C)nc(N5CC(O)C5)c4Cl)n[nH]c3c1)C(=O)N2 [Example 72, (1R,2S)-2-(3-{[5-chloro-6-(3-hydroxyazetidin-1-yl)-2-methylpyrimidin-4-yl]amino)-1H-indazol-6-yl)-5′-methoxyspiro[cyclopropane-1,3′-indol]-2′(1′H)-one] | 42.7 nM | 
14 | 0.434 nM | 535.4839 | 3304.147 | COc1ccc2c(c1)[C@]1(C[C@H]1c1ccc3c(Nc4nc(C5CC5)nc(N5CC(O)C5)c4Cl)n[nH]c3c1)C(=O)N2 [Example 76, (1R,2S)-2-(3-{[5-chloro-2-cyclopropyl-6-(3-hydroxyazetidin-1-yl)pyrimidin-4-yl]amino)-1H-indazol-6-yl)-5′-methoxyspiro[cyclopropane-1,3′-indol]-2′(1′H)-one] | 93.5 nM | 
15 | 1.76 nM | 1577.689 | 6738.759 | COc1ccc2c(c1)[C@]1(C[C@H]1c1ccc3c(Nc4nc(C5CC5)nc(N5C[C@@H](C)O[C@@H](C)C5)c4OC)n[nH]c3c1)C(=O)N2 [Example 77, (1R,2S)-2-[3-({2-cyclopropyl-6-[(2R,6S)-2,6-dimethylmorpholin-4-yl]-5-methoxypyrimidin-4-yl}amino)-1H-indazol-6-yl]-5′-methoxyspiro[cydopropane-1,3′-indol]-2′(1′H)-one] | 725 nM | 
16 | 0.35 nM | 1778.857 | 5660 | COc1ccc2c(c1)[C@]1(C[C@H]1c1ccc3c(Nc4nc(C(C)C)nc(N5CCS(=O)(=O)CC5)c4Cl)n[nH]c3c1)C(=O)N2 [Example 78, (1R,2S)-2-(3-((5-chloro-6-(1,1-dioxidothiomorpholino)-2-isopropylpyrimidin4-yl)amino)-1H-indazol-6-yl)-5′-methoxyspiro[cyclopropane-1,3′-indolin]-2′-one] | 61.4 nM | 
17 | 2.37 nM | 54.12 | 346.5116 | COc1ccc2c(c1)[C@]1(C[C@H]1c1ccc3c(Nc4nc(C5CC5)cnc4OC)n[nH]c3c1)C(=O)N2.O=C(O)C(F)(F)F [Example 80, (1R,2S)-2-{3-[(6-cyclopropyl-3-methorypyrazin-2-yl)amino]-1H-indazol-yl}-5′-metboxyspiro[cyclopropane-1,3′-indol]-2′(1′H)-one] | 294 nM | 
